Reference: patent US20090281049A1, “New use of ginsenoside compound-k in manufacturing medicaments” (priority 2006, published 2009)

Tested on: carrageenan-induced acute inflammation in rats
Assay: Carrageenan-induced paw edema in rats
Format: in vivo, Rat, SD strain
Method: Animals were firstly divided into large dose group: 10 mg/kg, iv, medium dose group: 5 mg/kg, iv, small dose group: 2.5 mg/kg, iv, an Indomethacin group: 1 mg/kg, po and a blank control group: physiological saline 10 mg/kg, iv. The animals were administered by the foregoing method for 3 days. The volume of the right hind paw of the rats was measured using hydroplethismometer before inflammation induced. 1 hour after the last administration, 0.1 ml 1% carrageenan was injected into the plantar surface of the right hind paw in order to induce inflammation. The volume of the right hind paw of the rats was measured by hydroplethismometer every other hour thereafter respectively. Swell rate and inhibition rate were calculated by the same method as above. Differences among groups were compared with t test.

In the case of `CC(C)=CCC[C@](C)(O[C@@H]1O[C@H](CO)[C@@H](O)[C@H](O)[C@H]1O)[C@H]1CC[C@]2(C)[C@@H]1[C@H](O)C[C@@H]1[C@@]3(C)CC[C@H](O)C(C)(C)[C@@H]3CC[C@]12C` [Ginsenoside Compound-K, ginsenoside Compound-K], the swell value (2.5 mg/kg iv, 0 h) is reported as 1.33 ± 0.08 mL, the inhibition rate (2.5 mg/kg iv, 1 h) is reported as <13.97> % and the swell rate (2.5 mg/kg iv, 1 h) is reported as “(20.22 ± 9.99) %”. For the same compound, the swell value (2.5 mg/kg iv, 1 h) was 1.59 ± 0.08 mL, the inhibition rate (2.5 mg/kg iv, 2 h) was <8.80> % and the swell rate (2.5 mg/kg iv, 2 h) was “(29.40 ± 12.71) %”. The swell value (2.5 mg/kg iv, 2 h) was 1.71 ± 0.13 mL, the inhibition rate (2.5 mg/kg iv, 3 h) was <16.54> % and the swell rate (2.5 mg/kg iv, 3 h) was “(34.80 ± 14.01) %”. For the same compound, the swell value (2.5 mg/kg iv, 3 h) was 1.79 ± 0.14 mL, the inhibition rate (2.5 mg/kg iv, 4 h) was <24.08> % and the swell rate (2.5 mg/kg iv, 4 h) was “(29.49 ± 13.86) %”. For the same compound, the swell value (2.5 mg/kg iv, 4 h) was 1.71 ± 0.12 mL, the inhibition rate (2.5 mg/kg iv, 5 h) was <15.78> % and the swell rate (2.5 mg/kg iv, 5 h) was “(31.22 ± 14.12) %”. For the same compound, the swell value (2.5 mg/kg iv, 5 h) was 1.74 ± 0.12 mL, the swell value (5 mg/kg iv, 0 h) was 1.39 ± 0.12 mL and the inhibition rate (5 mg/kg iv, 1 h) was <49.51> %. The swell rate (5 mg/kg iv, 1 h) was “(11.87 ± 6.23) %”, the swell value (5 mg/kg iv, 1 h) was 1.55 ± 0.11 mL and the inhibition rate (5 mg/kg iv, 2 h) was <42.44> %. The swell rate (5 mg/kg iv, 2 h) was “(18.56 ± 9.77) %”, the swell value (5 mg/kg iv, 2 h) was 1.64 ± 0.09 mL and the inhibition rate (5 mg/kg iv, 3 h) was <32.62> %. The swell rate (5 mg/kg iv, 3 h) was “(28.09 ± 11.34) %”, the swell value (5 mg/kg iv, 3 h) was 1.77 ± 0.12 mL and the inhibition rate (5 mg/kg iv, 4 h) was <48.22> %. For the same compound, the swell rate (5 mg/kg iv, 4 h) was “(20.11 ± 11.20) %”, the swell value (5 mg/kg iv, 4 h) was 1.66 ± 0.13 mL and the inhibition rate (5 mg/kg iv, 5 h) was <53.80> %. For the same compound, the swell rate (5 mg/kg iv, 5 h) was “(17.13 ± 10.13) %”, the swell value (5 mg/kg iv, 5 h) was 1.62 ± 0.11 mL and the swell value (10 mg/kg iv, 0 h) was 1.42 ± 0.10 mL. For the same compound, the inhibition rate (10 mg/kg iv, 1 h) was <72.87> %, the swell rate (10 mg/kg iv, 1 h) was “(6.38 ± 7.44) %” and the swell value (10 mg/kg iv, 1 h) was 1.51 ± 0.10 mL. For the same compound, the inhibition rate (10 mg/kg iv, 2 h) was <56.96> %, the swell rate (10 mg/kg iv, 2 h) was “(13.87 ± 8.55) %” and the swell value (10 mg/kg iv, 2 h) was 1.62 ± 0.11 mL. For the same compound, the inhibition rate (10 mg/kg iv, 3 h) was <61.49> %, the swell rate (10 mg/kg iv, 3 h) was “(16.06 ± 12.41) %” and the swell value (10 mg/kg iv, 3 h) was 1.65 ± 0.16 mL. The inhibition rate (10 mg/kg iv, 4 h) was <70.38> %, the swell rate (10 mg/kg iv, 4 h) was “(11.51 ± 9.76) %” and the swell value (10 mg/kg iv, 4 h) was 1.58 ± 0.14 mL. For the same compound, the inhibition rate (10 mg/kg iv, 5 h) was <78.23> %, the swell rate (10 mg/kg iv, 5 h) was “(8.07 ± 10.88) %” and the swell value (10 mg/kg iv, 5 h) was 1.53 ± 0.12 mL. The “overall effect on carrageenan-induced acute inflammation” value (rats, 10, 5, 2.5 mg/kg iv) was “able to inhibit carrageenan-induced acute inflammation in rats obviously”.
